These results are taken from PMC12469672, “Effects on Oral Squamous Carcinoma Cell Lines and Their Mechanisms of Pyrazole N-Aryl Sulfonate: A Novel Class of Selective Cyclooxygenase-2 Inhibitors” (International Journal of Molecular Sciences, 2025).

What all share (type): cell-based
For experiment [1], the system named is SAS cells. The experiment is described as follows: Annexin V-FITC/PI flow cytometry apoptosis, SAS. Conditions: 24 h, vs control. As for the experimental part:
(§1) After 24 h drug treatment at the predefined working concentrations, CAL-27 and SAS cells were trypsinized, centrifuged (200× g, 5 min, RT), and washed twice with 1 mL ice-cold PBS. Cell aliquots ((5–10) × 10^4 cells) were resuspended in 195 μL Annexin V-FITC binding buffer, followed by sequential addition of 5 μL Annexin V-FITC and 10 μL propidium iodide (PI) (BMS500FI-100, Thermo Fisher Scientific, Wien, Austria) with gentle mixing. After 10–20 min of incubation in darkness (20–25 °C) with intermittent resuspension (2–3 times), samples were placed on ice and analyzed within 1 h using a flow cytometer (CytExpert software [Version 2.4.0.28, Beckman Coulter, Brea, CA, USA]). Triplicate independent experiments were performed for statistical analysis.

The subject of experiment [2] is COX-2 mRNA in CAL-27 cells. The experiment is described as follows: RT-qPCR COX-2 mRNA, CAL-27. Conditions: CAL-27, working concentrations, 24 h. As for the experimental part: (§2) Equal amounts of RNA were reverse transcribed into cDNA using the Reverse Transcription Kit (AG11705, Accurate Biology, Guangzhou, China) following the manufacturer’s instructions. Quantitative PCR was performed on a QIAGEN Rotor-GeneQ system (9001862, QIAGEN, Hilden, Germany) with SYBR Green Pro Taq HS Premix II (AG11702, Accurate Biology, China).
(§3) The PCR protocol consisted of initial denaturation at 95 °C for 30 s, followed by 40 cycles of 95 °C for 5 s and 60 °C for 30 s. All reactions were performed in triplicate, with melting curve analysis confirming amplification specificity. The expression of the target genes was normalized to GAPDH, and fold changes were calculated in the manner of the 2^−ΔΔCT .

Experiment [3] has as its system CAL-27 cells. The experiment is described as follows: Hoechst 33342 staining, CAL-27. Conditions: CAL-27, 24 h, working concentrations, vs NC. As for the experimental part: (§4) After 24 h drug treatment at the predefined working concentrations, CAL-27 and SAS cells were dyed with 300 μL Hoechst 33342 staining (C1022, Beyotime, China) in the dark at 37 °C for 10 min. Then, the residual Hoechst 33342 staining was washed 3 times with 1 × phosphate-buffered saline (PBS, G4250-500ML, Servicebio, China). The images were then immediately examined under an inverted fluorescence microscope (CX23, Olympus, Japan).

For experiment [4], the system named is MMP2 mRNA in SAS cells. The experiment can be described thus: RT-qPCR MMP2 mRNA, SAS. Conditions: vs control. The protocol: as §2, §3
Experiment [5] concerns CAL-27 cells. The experiment is described as follows: Annexin V-FITC/PI flow cytometry apoptosis, CAL-27. Conditions: CAL-27, 24 h, vs control. The protocol: as §1
The test system of experiment [6] is SAS cells. The experiment is described as follows: Hoechst 33342 staining, SAS. Conditions: 24 h, working concentrations, vs NC. As for the experimental part: as §4
Experiment [7] concerns COX-2 protein in CAL-27 cells. The experiment is described as follows: Western blot COX-2, CAL-27. Conditions: CAL-27, vs control group and CXB-treated group. As for the experimental part: (§5) Cell lysates were centrifuged at 12,000× g for 10 min at 4 °C and then quantified using the BCA Protein Assay Kit (CW0014S, Cwbio, Taizhou, China). The lysate was denatured with sodium dodecyl sulfate–polyacrylamide gel electrophoresis (SDS-PAGE) sample loading buffer (P1040, Solarbio, Beijing, China), followed by SDS-PAGE and electrotransfer to polyvinylidene difluoride membranes (10600023, Cytiva, Marlborough, MA, USA). The membranes were incubated overnight at 4 °C with GAPDH (1:5000, 1049-1-AP, Proteintech Group, Wuhan, China), anti-PTGS2 (1:2000, 12375-1-AP, Proteintech Group, China), anti-BAX (1:1000, ab777, Abcam, Cambridge, UK), anti-BCL2 (1:5000, ET1702-53, HUABIO, Hangzhou, China), anti-BCL-XL (1:8000, 10783-1-AP, Proteintech Group, China), anti-MMP2 (1:3000, 66366-1-Ig, Proteintech Group, China), anti-MMP9 (1:3000, 10372-2-AP, Proteintech Group, China), anti-JAK1 (1:3000, 66466-1-Ig, Proteintech Group, China), anti-phospho-JAK1 (1:400, GB115604-100, Servicebio, China), anti-STAT3 (1:2000, 10253-2-AP, Proteintech Group, China), and anti-phospho-STAT3 (1:1000, 39595, Activemotif, Shanghai, China) at the appropriate dilution and then incubated with the secondary antibody at room temperature for 1.5 h. The bands were visualized by employing an ECL detection reagent (36208ES76, Yeasen, Shanghai, China) and independently quantified twice using ImageJ (v1.8.0.322) and ChemiScope Analysis (Version 2.1.6.0) software. Subsequently, the obtained data were normalized to GAPDH.
A general note: In western blotting, separated proteins are transferred to a membrane and probed.

The subject of experiment [8] is SAS cells. The experiment can be described thus: Transwell migration assay, SAS. Conditions: 24 h treatment at working concentrations, vs control. As for the experimental part: (§6) Following 24 h drug treatment at the predefined working concentrations, CAL-27 and SAS cells (5 × 10^5 cells/mL in serum-free medium) were seeded in Transwell upper chambers (200 μL/well, 1 × 10^5 cells) with 700 μL complete medium containing 10% FBS in lower chambers. After 36 h of incubation (37 °C, 5% CO2), the cells from the upper surface of the membrane were wiped off using a cotton swab, whereupon migrated cells were fixed (4% paraformaldehyde [P0099-100 mL, Beyotime, Haimen, China], 4 °C, 4 h), stained (0.1% crystal violet [C0121-100 mL, Beyotime, China], 30 min), and quantified by counting five random fields under a microscope (CX23, Olympus, Tokyo, Japan) using ImageJ (v1.8.0.322), with triplicate wells per condition.

Experiment [9] has as its system MMP2 mRNA in CAL-27 cells. The experiment can be described thus: RT-qPCR MMP2 mRNA, CAL-27. Conditions: CAL-27, 24 h, vs control. The protocol: as §2, §3
For orientation: In qPCR the cycle at which signal appears reflects the starting amount.

In experiment [10] the test system is CAL-27 cells. The experiment is described as follows: Transwell migration assay, CAL-27. Conditions: CAL-27, 24 h treatment at working concentrations, vs control. As for the experimental part: as §6
In experiment [11] the test system is BCL2 protein in CAL-27 cells. The experiment is described as follows: Western blot BCL2, CAL-27. Conditions: CAL-27, vs CXB. The protocol: as §5

“Also recorded” adds a separate entry of the source.

`Cc1ccc(-c2cc(C)n(S(=O)(=O)Oc3ccccc3Cl)n2)cc1` [Compound 4d]: the “total apoptotic cell population (early and late apoptosis)” value (“total apoptotic cell population” below) in experiment [1] and in experiment [5] was “significantly higher” in each case. For the same compound, the “COX-2 mRNA level” value in [2] (vs CXB-treated group) is listed as “significantly lower”; in experiment [2] (vs control), “significantly downregulated”. The “apoptotic cells (Hoechst 33342, fluorescence microscopy)” value (“apoptotic cells” for short) in [3] and in experiment [6] was “significant increase” throughout. Moreover, the “MMP2 mRNA expression” value in [4] is listed as “markedly suppressed”; in [9], “significantly downregulated”. In addition, the “COX-2 protein expression (Western blot)” value in experiment [7] is listed as “significantly reduced”. For the same compound, the “migratory capacity (Transwell)” value in experiment [8] and in experiment [10] was “significantly reduced” in each case. The “BCL2 protein suppression (Western blot)” value in experiment [11] is recorded as “stronger suppression of BCL2 than CXB”.
In the case of `Cc1cc(-c2ccco2)nn1S(=O)(=O)Oc1ccccc1Cl` [Compound 5f], the “total apoptotic cell population” value in [1] is “significantly higher; also recorded: optimal efficacy”; in [5] it was “significantly higher”. The entries for the “COX-2 mRNA level” value in experiment [2] (vs CXB-treated group) and in experiment [2] (vs control) were “significantly lower” and “significantly downregulated”, respectively. For the same compound, the “apoptotic cells” value in [3] and in experiment [6] was “significant increase” in each case. The results for the “MMP2 mRNA expression” value in [4] and in [9] were “no statistically significant suppression” and “significantly downregulated”, respectively. The “COX-2 protein expression (Western blot)” value in [7] is recorded as “significantly reduced”. In addition, the “migratory capacity (Transwell)” value in [8] and in experiment [10] was “significantly reduced” each time. Besides, the “BCL2 protein suppression (Western blot)” value in [11] is reported as “stronger suppression of BCL2 than CXB”.
In the case of `Cc1ccc(-c2cc(C)n(S(=O)(=O)Oc3ccc(I)cc3)n2)cc1` [Compound 4b], the “total apoptotic cell population” value was “significantly higher” in experiment [1] and “significantly higher; also recorded: strongest pro-apoptotic effect” in experiment [5]. Besides, the “COX-2 mRNA level” value in experiment [2] (vs CXB-treated group) is “significantly lower”; in experiment [2] (vs control) it was “significantly downregulated”. Further, the “apoptotic cells” value in experiment [3] and in experiment [6] was “significant increase” throughout. Besides, the “MMP2 mRNA expression” value in experiment [4] is “markedly suppressed”; in experiment [9], “significantly downregulated”. The “COX-2 protein expression (Western blot)” value in experiment [7] is “significantly reduced”. Also, the “migratory capacity (Transwell)” value in experiment [8] and in experiment [10] was “significantly reduced” in each case. Besides, in experiment [11], the “BCL2 protein suppression (Western blot)” value is “stronger suppression of BCL2 than CXB”.
